pIC50: −log10 of the molar value. Where a name gives a salt, the structure may show the parent alone.
Molecular target: human RAF1 (Homo sapiens (Human), UniProt P04049)
Experiment: Protein kinase assay (radiometric 33P-ATP, MEK1 (K97R) substrate), RAF-1
Type: biochemical
Details: human MEK1 (K97R) substrate 3 micromolar, ATP 10 micromolar; 10-dose, 3-fold serial dilution starting at 10 micromolar; read-out: RAF-1 IC50
Experimental: Example 1: Kinase Assay Protocol
Assay platform was used to measure kinase/inhibitor interactions as described previously (Anastassiadis et al., 2011). In brief, for each reaction, kinase and substrate were mixed in a buffer containing 20 mM HEPES (pH 7.5), 10 mM MgCl2, 1 mM EGTA, 0.02% Brij35, 0.02 mg/mL BSA, 0.1 mM Na3VO4, 2 mM DTT, and 1% DMSO. All compounds were solubilized in DMSO. Compounds were then added to each reaction mixture via acoustic dispense using an ECHO 550 nanoliter dispenser. For human RAF1 testing, human MEK1 (K97R) was used as a substrate at a concentration of 3 micromolar, with a final ATP concentration of 10 micromolar. For human BRAF testing, human MEK1 (K97R) was used as a substrate at 1 micromolar concentration, with a final ATP concentration of 25 micromolar. […] After a 20-min incubation, ATP (Sigma-Aldrich, St. Louis, Mo. 63178) and [g33P] ATP (specific activity 10 microCi/microliter) purchased at PerkinElmer (Boston, Mass., 02118 Cat #BLU 003H250UC) were added at a final total concentration of […]. Reactions were carried out at room temperature for 2 hr and spotted onto P81 ion exchange cellulose chromatography paper (Reaction Biology). Filter paper was washed in 0.75% phosphoric acid to remove unincorporated ATP. The percent remaining kinase activity relative to a vehicle-containing (DMSO) kinase reaction was calculated for each kinase/inhibitor pair. IC50 values were calculated using Prism 5 (GraphPad).

Chain of human RAF1 (P04049 whole entry): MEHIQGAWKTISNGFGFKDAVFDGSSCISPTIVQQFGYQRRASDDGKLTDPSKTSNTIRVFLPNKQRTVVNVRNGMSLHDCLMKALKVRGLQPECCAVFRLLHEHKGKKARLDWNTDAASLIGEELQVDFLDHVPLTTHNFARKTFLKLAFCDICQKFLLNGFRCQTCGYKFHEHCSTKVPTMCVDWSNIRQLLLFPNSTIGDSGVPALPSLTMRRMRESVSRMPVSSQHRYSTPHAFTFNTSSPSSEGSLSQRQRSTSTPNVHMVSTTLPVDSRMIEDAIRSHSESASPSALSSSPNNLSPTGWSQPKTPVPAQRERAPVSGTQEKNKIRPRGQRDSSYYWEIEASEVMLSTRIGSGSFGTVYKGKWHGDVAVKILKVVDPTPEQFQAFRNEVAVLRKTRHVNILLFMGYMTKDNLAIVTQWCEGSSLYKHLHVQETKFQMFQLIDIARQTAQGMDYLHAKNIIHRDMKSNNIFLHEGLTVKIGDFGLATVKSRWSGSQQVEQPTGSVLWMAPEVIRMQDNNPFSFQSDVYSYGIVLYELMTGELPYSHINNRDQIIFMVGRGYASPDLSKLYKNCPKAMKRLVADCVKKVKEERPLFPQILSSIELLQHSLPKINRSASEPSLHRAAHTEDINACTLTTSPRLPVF

Row | pIC50 | Compound
1 | 8.00 to 9.00 | Cc1ccc(NC(=O)N2CC[C@@H](CC(F)(F)F)C2)cc1-c1cc(/C=C/[C@@H](C)O)nc(N2CCOCC2)c1 [Example 17, (3S)—N-(3-[2-[(1E,3R)-3-hydroxybut-1-en-1-yl]-6-(morpholin-4-yl)pyridin-4-yl]-4-methylphenyl)-3-(2,2,2-trifluoroethyl)pyrrolidine-1-carboxamide]
2 | 8.00 to 9.00 | Cc1ccc(NC(=O)N2CC[C@@H](CC(F)(F)F)C2)cc1-c1cc(-c2cscn2)nc(N2CCOCC2)c1 [Example 42, (3S)—N-[4-methyl-3-[2-(morpholin-4-yl)-6-(1,3-thiazol-4-yl)pyridin-4-yl]phenyl]-3-(2,2,2-trifluoroethyl)pyrrolidine-1-carboxamide]
3 | > 9.00 | Cc1ccc(NC(=O)N2CC[C@@H](CC(F)(F)F)C2)cc1-c1cc(-c2cnn(C)c2C)nc(N2CCOCC2)c1 [Example 48, (3S)—N-[3-[2-(1,5-dimethylpyrazol-4-yl)-6-(morpholin-4-yl)pyridin-4-yl]-4-methylphenyl]-3-(2,2,2-trifluoroethyl)pyrrolidine-1-carboxamide]
4 | > 9.00 | Cc1cc(F)c(NC(=O)N2CC=C(C(F)(F)F)C2)cc1-c1cc(-c2ccnn2C)nc(N2CCOCC2)c1 [Example 73, N-{2-fluoro-4-methyl-5-[2-(2-methylpyrazol-3-yl)-6-(morpholin-4-yl)pyridin-4-yl]phenyl}-3-(trifluoromethyl)-2,5-dihydropyrrole-1-carboxamide]
5 | > 9.00 | Cc1ccc(NC(=O)N2CC[C@@H](CC(F)(F)F)C2)cc1-c1cc([C@@H]2C[C@@H]2CO)nc(N2CCOCC2)c1 [Example 13, (3S)—N-(3-[2-[(1R,2S)-2-(hydroxymethyl)cyclopropyl]-6-(morpholin-4-yl)pyridin-4-yl]-4-methylphenyl)-3-(2,2,2-trifluoroethyl)pyrrolidine-1-carboxamide]
6 | > 9.00 | Cc1ccc(NC(=O)N2CC[C@@H](CC(F)(F)F)C2)cc1-c1cc(CC[C@@H](C)O)nc(N2CCOCC2)c1 [Example 12, (3S)—N-(3-[2-[(3R)-3-hydroxybutyl]-6-(morpholin-4-yl)pyridin-4-yl]-4-methylphenyl)-3-(2,2,2-trifluoroethyl)pyrrolidine-1-carboxamide]
7 | 8.00 to 9.00 | CNC(=O)c1cc(-c2cc(NC(=O)N3CC[C@@H](CC(F)(F)F)C3)ccc2C)cc(N2CCOCC2)n1 [Example 3, N-methyl-4-[2-methyl-5-[(3S)-3-(2,2,2-trifluoroethyl)pyrrolidine-1-carbonylamino]phenyl]-6-(morpholin-4-yl)pyridine-2-carboxamide]
8 | > 9.00 | Cc1ccc(NC(=O)N2CC=C(C(F)(F)F)C2)cc1-c1cc(-c2cnn(C)c2)nc(N2CCOCC2)c1 [Example 66, N-{4-methyl-3-[2-(1-methylpyrazol-4-yl)-6-(morpholin-4-yl)pyridin-4-yl]phenyl}-3-(trifluoromethyl)-2,5-dihydropyrrole-1-carboxamide]
9 | 8.00 to 9.00 | Cc1ccc(NC(=O)N2CC[C@@H](CC(F)(F)F)C2)cc1-c1cc(C2CCN(C)CC2)nc(N2CCOCC2)c1 [Example 39, (S)—N-(4-methyl-3-(2-(1-methylpiperidin-4-yl)-6-morpholinopyridin-4-yl)phenyl)-3-(2,2,2-trifluoroethyl)pyrrolidine-1-carboxamide formate]
10 | 8.00 to 9.00 | Cc1ccc(NC(=O)N2CC[C@@H](CC(F)(F)F)C2)cc1-c1cc(-c2cnn(C(F)F)c2)nc(N2CCOCC2)c1 [Example 41, (3S)—N-(3-[2-[1-(difluoromethyl)pyrazol-4-yl]-6-(morpholin-4-yl)pyridin-4-yl]-4-methylphenyl)-3-(2,2,2-trifluoroethyl)pyrrolidine-1-carboxamide]
11 | > 9.00 | Cc1ccc(NC(=O)N2CCO[C@@H](C(F)(F)F)C2)cc1-c1cc(-c2ccnn2C)nc(N2CCOCC2)c1 [Example 65, (2R)—N-{4-methyl-3-[2-(2-methylpyrazol-3-yl)-6-(morpholin-4-yl)pyridin-4-yl]phenyl}-2-(trifluoromethyl)morpholine-4-carboxamide]
12 | > 9.00 | Cc1cc(F)c(NC(=O)N2CC[C@@H](CC(F)(F)F)C2)cc1-c1cc(C2CC2)nc(N2CCOCC2)c1 [Example 71, (3S)—N-{5-[2-cyclopropyl-6-(morpholin-4-yl)pyridin-4-yl]-2-fluoro-4-methylphenyl}-3-(2,2,2-trifluoroethyl)pyrrolidine-1-carboxamide]
13 | 8.00 to 9.00 | Cc1ccc(NC(=O)N2CC[C@@H](CC(F)(F)F)C2)cc1-c1cc(CO)nc(N2CCOCC2)c1 [Example 60, (3S)—N-[3-[2-(hydroxymethyl)-6-(morpholin-4-yl)pyridin-4-yl]-4-methylphenyl]-3-(2,2,2-trifluoroethyl)pyrrolidine-1-carboxamide]
14 | 8.00 to 9.00 | Cc1cc(F)c(NC(=O)N2CC[C@@H](C(F)(F)C(F)(F)F)C2)cc1-c1cc(-c2cnn(C)c2)nc(N2CCOCC2)c1 (single isomer, unassigned) [Example 80]
15 | > 9.00 | COc1cc(-c2cc(-c3cc(NC(=O)N4CC[C@@H](CC(F)(F)F)C4)ccc3C)cc(N3CCOCC3)n2)ccn1 [Example 25, (3S)—N-[3-[2-methoxy-6-(morpholin-4-yl)-[2,4-bipyridin]-4-yl]-4-methylphenyl]-3-(2,2,2-trifluoroethyl)pyrrolidine-1-carboxamide]
16 | 8.00 to 9.00 | Cc1ccc(NC(=O)N2CC[C@@H](CC(F)(F)F)C2)cc1-c1cc(-c2cncn2C)nc(N2CCOCC2)c1 [Example 16, (3S)—N-[4-methyl-3-[2-(3-methylimidazol-4-yl)-6-(morpholin-4-yl)pyridin-4-yl]phenyl]-3-(2,2,2-trifluoroethyl)pyrrolidine-1-carboxamide]
17 | > 9.00 | Cc1ccc(NC(=O)N2CC[C@@H](CC(F)(F)F)C2)cc1-c1cc(-c2cn[nH]c2)nc(N2CCOCC2)c1 [Example 33, (3S)—N-[4-methyl-3-[2-(morpholin-4-yl)-6-(1H-pyrazol-4-yl)pyridin-4-yl]phenyl]-3-(2,2,2-trifluoroethyl)pyrrolidine-1-carboxamide]
18 | 7.00 to 8.00 | Cc1ccc(NC(=O)N2CC[C@@H](CC(F)(F)F)C2)cc1-c1cc(N2CCOCC2)nc(C(C)(C)O)c1 [Example 27, (3S)—N-[3-[2-(2-hydroxypropan-2-yl)-6-(morpholin-4-yl)pyridin-4-yl]-4-methylphenyl]-3-(2,2,2-trifluoroethyl)pyrrolidine-1-carboxamide]
19 | 7.00 to 8.00 | Cc1ccc(NC(=O)N2CC[C@@H](CC(F)(F)F)C2)cc1-c1cc(C2CCCNC2)nc(N2CCOCC2)c1 (stereo partly drawn) [Example 28, (3S)—N-[4-methyl-3-[2-(morpholin-4-yl)-6-(piperidin-3-yl)pyridin-4-yl]phenyl]-3-(2,2,2-trifluoroethyl)pyrrolidine-1-carboxamide]
20 | 8.00 to 9.00 | Cc1ccc(NC(=O)N2CC[C@@H](CC(F)(F)F)C2)cc1-c1cc(-c2cn(C)nc2C)nc(N2CCOCC2)c1 [Example 37, (3S)—N-[3-[2-(1,3-dimethylpyrazol-4-yl)-6-(morpholin-4-yl)pyridin-4-yl]-4-methylphenyl]-3-(2,2,2-trifluoroethyl)pyrrolidine-1-carboxamide]
21 | > 9.00 | Cc1cc(F)c(NC(=O)N2CC[C@@H](CC(F)(F)F)C2)cc1-c1cc(-c2cnn(C)c2)nc(N2CCOCC2)c1 [Example 74, (3S)—N-{2-fluoro-4-methyl-5-[2-(1-methylpyrazol-4-yl)-6-(morpholin-4-yl)pyridin-4-yl]phenyl}-3-(2,2,2-trifluoroethyl)pyrrolidine-1-carboxamide]

Row | Compound | pIC50
22 | Cc1ccc(NC(=O)N2CC[C@@H](CC(F)(F)F)C2)cc1-c1cc(C(=O)N[C@@H](C)CO)nc(N2CCOCC2)c1 [Example 8, N-[(2S)-1-hydroxypropan-2-yl]-4-[2-methyl-5-[(3S)-3-(2,2,2-trifluoroethyl)pyrrolidine-1-carbonylamino]phenyl]-6-(morpholin-4-yl)pyridine-2-carboxamide] | > 9.00
23 | CCn1cc(-c2cc(-c3cc(NC(=O)N4CC[C@@H](CC(F)(F)F)C4)ccc3C)cc(N3CCOCC3)n2)cn1 [Example 78, (3S)—N-{3-[2-(1-ethylpyrazol-4-yl)-6-(morpholin-4-yl)pyridin-4-yl]-4-methylphenyl}-3-(2,2,2-trifluoroethyl)pyrrolidine-1-carboxamide] | > 9.00
24 | Cc1ccc(NC(=O)N2CC[C@@H](CC(F)(F)F)C2)cc1-c1cc(C(=O)N(C)CCO)nc(N2CCOCC2)c1 [Example 18, N-(2-hydroxyethyl)-N-methyl-4-[2-methyl-5-[(3S)-3-(2,2,2-trifluoroethyl)pyrrolidine-1-carbonylamino]phenyl]-6-(morpholin-4-yl)pyridine-2-carboxamide] | > 9.00
25 | Cc1ccc(NC(=O)N2CC[C@@H](CC(F)(F)F)C2)cc1-c1cc(C(=O)NC[C@H](C)O)nc(N2CCOCC2)c1 [Example 7, N-[(2S)-2-hydroxypropyl]-4-[2-methyl-5-[(3S)-3-(2,2,2-trifluoroethyl)pyrrolidine-1-carbonylamino]phenyl]-6-(morpholin-4-yl)pyridine-2-carboxamide] | > 9.00
